Test results taken from ChEMBL document CHEMBL2146422, “Viequeamide A, a cytotoxic member of the kulolide superfamily of cyclic depsipeptides from a marine button cyanobacterium” (2012).
The source made the active and inactive calls. The calls are words filed in the database; no cut-off is given here. *1 amine or outer side, *2 acyl side, *3 side chain or, on linkers, in order; H or OH if unused. Where a SMILES comes first, the peptide text is derived from it. Bridges are numbered along the chain shown (N, C = ends). [ ]: non-standard residue; d: D form. X1 = C#CCCC[C@H](O[*:2])C(C)(C)C(=O)[*:1]; X3 = C=CCCC[C@H](O[*:2])C(C)(C)C(=O)[*:1]; X2 = CCCCC[C@H](O[*:2])C(C)(C)C(=O)[*:1]; Hmp(2R,3S) = CC[C@H](C)[C@@H](O)C(=O)O; PhLac = O=C(O)[C@@H](O)Cc1ccccc1; NMeV = CN[C@H](C(=O)O)C(C)C; NMeA = CN[C@@H](C)C(=O)O

How the values were obtained:
NCI-H460 [1] = assay: Cytotoxicity against human H460 cells at 30 ug/mL after 48 hrs by MTT assay; assay type: functional, cell-based
NCI-H460 [2] = assay: Cytotoxicity against human H460 cells after 48 hrs by MTT assay; assay type: functional; conditions: NCI-H460, 48 h, read-out: LD50 (the source's name)

C#CCCC[C@@H]1OC(=O)[C@H](C(C)C)NC(=O)[C@H](C)N(C)C(=O)[C@@H]2CCCN2C(=O)[C@H](Cc2ccccc2)OC(=O)[C@H](C(C)C)N(C)C(=O)[C@H](C(C)C)NC(=O)C1(C)C (V[NMeV][PhLac]P[NMeA]V; linker N-C via X1)
Activity (NCI-H460 [1]): inactive

CCCCC[C@@H]1OC(=O)[C@H](C(C)C)NC(=O)[C@H](C)N(C)C(=O)[C@@H]2CCCN2C(=O)[C@H](Cc2ccccc2)OC(=O)[C@H](C(C)C)N(C)C(=O)[C@H](C(C)C)NC(=O)C1(C)C (V[NMeV][PhLac]P[NMeA]V; linker N-C via X2)
Activity (NCI-H460 [1]): inactive

C=CCCC[C@@H]1OC(=O)[C@H](C(C)C)NC(=O)[C@H](C)N(C)C(=O)[C@@H]2CCCN2C(=O)[C@H](Cc2ccccc2)OC(=O)[C@H](C(C)C)N(C)C(=O)[C@H](C(C)C)NC(=O)C1(C)C (V[NMeV][PhLac]P[NMeA]V; linker N-C via X3)
Activity (NCI-H460 [1]): inactive

C#CCCC[C@@H]1OC(=O)[C@H]([C@@H](C)O)NC(=O)[C@H](C(C)C)N(C)C(=O)[C@@H]2CCCN2C(=O)[C@@H]([C@@H](C)CC)OC(=O)[C@H](C(C)C)N(C)C(=O)[C@H](C(C)C)NC(=O)C1(C)C [VIEQUEAMIDE A] (V[NMeV][Hmp(2R,3S)]P[NMeV]T; linker N-C via X1)
CC50 (NCI-H460 [2]): 60 nM
